Data set [1] deals with E. coli ATCC 25922. The format is cell-based, Escherichia coli. The following applies: for Antimicrobial activity (MIC) Experimental values: ATCC 25922; for MIC in MH medium: ATCC 25922, 16 h. Here is the method: (§1) MIC: Minimal Inhibitory Concentration of AMPs in MH Medium Against E. coli ATCC 25922 Minimal inhibitory concentration (MIC) represents for the lowest concentration of peptide at which the AMP can still kill 90% of the bacteria. All MIC tests for WLK peptide series SEQ ID NO:1-13 were measured against Escherichia coli strain (ATCC 25922) in triplicate. Peptide concentration was determined by UV spectrophotometer (Ultrospec 1100 pro from Amersham Biosciences) at 280 nm with proper extinction coefficient. (Gill S. C. & Von Hippel P. H., Analytical biochemistry 1989, 182(2), 319-326). All of the samples were prepared from a stock solution containing peptides of concentrations 5, 2.5, 1.25, 0.625, 0.313, 0.156 and 0.078 mg/ml. Bacteria culture in the middle of logarithmic growth at a concentration of 5×10^5 colony-formation unit (CFU) and protein solution at the aforementioned concentrations were uniformly mixed in a 96-well culture plate (each well contains 1 microliter protein solution and 99 microliter of bacteria culture). After growing the culture at 37° C. for 16 hours, how bacterial growth was inhibited was measured by Thermo Max (Molecular Devices) at the wavelength of 600 nm. The MIC values were determined by triplicates of the above experiments.

In data set [2] the test system is Escherichia coli strain (ATCC 25922). The format is cell-based. Here is the method:
as §1, with “Minimal” for “MIC: Minimal Inhibitory Concentration of AMPs in MH Medium Against E. coli ATCC 25922 Minimal”

The subject of data set [3] is human red blood cells. The format is cell-based. As to the method: Hemolysis Activity Test Hemolytic activity was determined by measuring hemolysis of human red blood cells. Fresh red blood cells and PBS buffer solution (pH 7.4) was mixed uniformly and centrifugated by relative centrigugal force (RCF) 800 g rpm for 10 minutes, washed and then diluted by the PBS buffer solution to 10% concentration by volume (v/v). All the tested peptides were prepared with different concentrations (800, 400, 200, 100, 50, 25, 12.5, 6.25, 3.13, 1.56 μg/ml) and then mixed with PBS buffer in 1:1 ratio (100 μL:100 μL) by volume. In 1:1 ratio (v/v), the red blood cell solution was mixed with a PBS buffer, with or without 2% Triton X-100, respectively as the positive and negative controls. All samples to be tested were settled at 37° C. environment for 1 hour. Next, the specimen was centrifuged under RCF 800 g for 10 minutes and the absorbance of its supernatant was measured at a wavelength of 450 nm. The hemolytic activity would be measured according to the following formula: “% hemolysis=[Asample−APBS]/[ATritonX100−APBS]”

≈ marks a conversion by molar mass, not a printed value. Peptide text beside a SMILES is read from it.

Consider `CC(C)C[C@H](NC(=O)[C@H](Cc1c[nH]c2ccccc12)NC(=O)[C@H](CCCCN)NC(=O)[C@H](CC(C)C)NC(=O)[C@H](Cc1c[nH]c2ccccc12)NC(=O)[C@H](CCCCN)NC(=O)[C@H](CC(C)C)NC(=O)[C@H](Cc1c[nH]c2ccccc12)NC(=O)[C@H](CCCCN)NC(=O)[C@H](CCCCN)NC(=O)[C@H](CCCCN)NC(=O)[C@@H](N)CCCCN)C(=O)N[C@@H](CCCCN)C(=O)O` [SEQ ID NO. 12, KKKKWLKWLKWLK] (H-KKKKWLKWLKWLK-OH), for which, in data set [1], the “Antimicrobial activity (MIC) Experimental values” (“Antimicrobial activity” for short) came to 1.56 µg/mL and the “MIC in MH medium” value was found to be 1.56 µg/mL (≈ 0.86 µM). In data set [2], the “MIC in LYM medium, NaCl 50” value was determined as 1.56 µg/mL (≈ 0.86 µM); the “MIC in LYM medium, NaCl 100” value was 3.13 µg/mL (≈ 1.73 µM); the “MIC in LYM medium, NaCl 200” value turned out to be 3.13 µg/mL (≈ 1.73 µM); the “MIC in LYM medium, NaCl 300” value was determined as 3.13 µg/mL (≈ 1.73 µM). Further, the “MIC in LYM medium, control” value in data set [2] was determined as 1.56 µg/mL (≈ 0.86 µM). The “hemolytic activity on human erythrocytes” value in data set [3] was “lower hemolytic activity”.

On to `CC(C)C[C@H](NC(=O)[C@H](Cc1c[nH]c2ccccc12)NC(=O)[C@H](CCCCN)NC(=O)[C@H](CC(C)C)NC(=O)[C@H](Cc1c[nH]c2ccccc12)NC(=O)[C@H](CCCCN)NC(=O)[C@@H](N)CC(C)C)C(=O)N[C@@H](CCCCN)C(=O)N[C@@H](CCCCN)C(=O)N[C@@H](CCCCN)C(=O)N[C@@H](CCCCN)C(=O)N[C@@H](CCCCN)C(=O)N[C@@H](Cc1c[nH]c2ccccc12)C(=O)O` [SEQ ID NO. 4, LKWLKWLKKKKKW] (H-LKWLKWLKKKKKW-OH; N-terminus and C-terminus assumed), for which, in data set [1], the “Antimicrobial activity” value came out at 12.5 µg/mL and the “MIC in MH medium” value stood at 12.5 µg/mL (≈ 6.89 µM). For the same compound, in data set [2], the “MIC in LYM medium, NaCl 50” value is 3.13 µg/mL (≈ 1.73 µM); the “MIC in LYM medium, NaCl 100” value is 3.13 µg/mL (≈ 1.73 µM); the “MIC in LYM medium, NaCl 200” value was found to be 12.5 µg/mL (≈ 6.89 µM); the “MIC in LYM medium, NaCl 300” value came to 50 µg/mL (≈ 27.6 µM). In addition, the “MIC in LYM medium, control” value in data set [2] is 1.56 µg/mL (≈ 0.86 µM).

With `CC(C)C[C@H](NC(=O)[C@H](Cc1c[nH]c2ccccc12)NC(=O)[C@H](CCCCN)NC(=O)[C@H](CCCCN)NC(=O)[C@H](CCCCN)NC(=O)[C@H](CCCCN)NC(=O)[C@H](CCCCN)NC(=O)[C@H](CC(C)C)NC(=O)[C@H](Cc1c[nH]c2ccccc12)NC(=O)[C@H](CCCCN)NC(=O)[C@H](CC(C)C)NC(=O)[C@H](Cc1c[nH]c2ccccc12)NC(=O)[C@@H](N)CCCCN)C(=O)O` [SEQ ID NO. 5, KWLKWLKKKKKWL] (H-KWLKWLKKKKKWL-OH; N-terminus and C-terminus assumed), in data set [1], the “Antimicrobial activity” value is 12.5 µg/mL and the “MIC in MH medium” value stood at 12.5 µg/mL (≈ 6.89 µM). Besides, in data set [2], the “MIC in LYM medium, NaCl 50” value came to 3.13 µg/mL (≈ 1.73 µM); the “MIC in LYM medium, NaCl 100” value is 12.5 µg/mL (≈ 6.89 µM); the “MIC in LYM medium, NaCl 200” value amounted to 25 µg/mL (≈ 13.8 µM); the “MIC in LYM medium, NaCl 300” value turned out to be 50 µg/mL (≈ 27.6 µM). Besides, the “MIC in LYM medium, control” value in data set [2] amounted to 3.13 µg/mL (≈ 1.73 µM).

On to `CC(C)C[C@H](NC(=O)[C@H](Cc1c[nH]c2ccccc12)NC(=O)[C@H](CCCCN)NC(=O)[C@H](CC(C)C)NC(=O)[C@H](Cc1c[nH]c2ccccc12)NC(=O)[C@H](CCCCN)NC(=O)[C@H](CC(C)C)NC(=O)[C@H](Cc1c[nH]c2ccccc12)NC(=O)[C@H](CCCCN)NC(=O)[C@H](CCCCN)NC(=O)[C@H](CCCCN)NC(=O)[C@H](CCCCN)NC(=O)[C@@H](N)CCCCN)C(=O)O` [SEQ ID NO. 11, KKKKKWLKWLKWL] (H-KKKKKWLKWLKWL-OH; N-terminus and C-terminus assumed), for which, in data set [1], the “Antimicrobial activity” value was found to be 1.56 µg/mL and the “MIC in MH medium” value amounted to 1.56 µg/mL (≈ 0.86 µM). For the same compound, in data set [2], the “MIC in LYM medium, NaCl 50” value turned out to be 1.56 µg/mL (≈ 0.86 µM); the “MIC in LYM medium, NaCl 100” value is 1.56 µg/mL (≈ 0.86 µM); the “MIC in LYM medium, NaCl 200” value amounted to 1.56 µg/mL (≈ 0.86 µM); the “MIC in LYM medium, NaCl 300” value worked out at 3.13 µg/mL (≈ 1.73 µM). Also, in data set [2], the “MIC in LYM medium, control” value was 1.56 µg/mL (≈ 0.86 µM).

The values are drawn from patent US10810329B2, “In silico design of peptides equilibrated in a lipid bilayer with partition free energies indicating probability of antimicrobial activity” (priority 2015, dated 2020).
